The test system of test [1] is Hela cells. In words: Cell viability assay (MTS) of HeLa cells with SO1861 + dianthin-EGF and PAMAM, PAMAM-conjugates, G4-dendron or chloroquine. The note with it: positive control. Type of test: cell-based, human. Here is the method: Hela cells were seeded in DMEM (PAN-Biotech GmbH) supplemented with 10% fetal bovine serum (PAN-Biotech GmbH) and 1% penicillin/streptomycin (PAN-Biotech GmbH), in a 96 well plate at 5,000 c/w in 100 μL/well and incubated overnight at 37° C. and 5% CO2. The next day 20× concentrated stocks of the PAMAM, PAMAM-conjugates, G4-dendron (prepared in Example 3) or chloroquine (Sigma Aldrich) samples were prepared in DMEM. The media was removed from the cell culture plate and replaced by 160 μL culture media, followed by the addition of 10 μL sample/well (from the 20× concentrated stocks) and a 45 min incubation at 37° C. […] Followed by 15 sec sonication and a brief re-heating at 50° C. for 1 min, while shaking at 1,250 rpm. Subsequently a serial dilution of SO1861 was prepared in PBS.
Scientific Multiskan FC plate reader (Thermo Scientific).

Test [2] has as its system SK-BR-3, JIMT-1, MDA-MB-468, A431, CaSKi, HeLa, A2058. In words: Control treatments on all cell lines, relative cell viability (Example 8). The class given is cell-based, human. To be noted: wide range of toxin concentrations, up to 100.000 pM (FIG. 14D).

In the case of `CCN(CC)CCCC(C)Nc1ccnc2cc(Cl)ccc12` (centres unmarked) [Chloroquine], the “fold increase in glycoside amount to observe 50% cell killing” value in test [1] was determined as 2 fold.

With saporin, the relative cell viability entry in test [2] is reported as “do not or hardly have any influence on cell viability”.

The record behind these values is patent publication US20260000783A1, “ANTIBODY-DRUG CONJUGATE WITH IMPROVED THERAPEUTIC WINDOW” (priority 2018, published 2026).
